Experimental data reported in article PMC11808659 (RSC Advances, 2025).

What was measured:
[1] = system: K562 human leukemia cell line; assay: MTT anti-proliferative activity on K562 cell line; format: cell-based; settings: structure-activity discussion
ABL1 tyrosine kinase = ABL1 tyrosine kinase inhibition in K562 cells; format: cell-based, human; settings: at a concentration of 30 μM

SMILES | anti-tumor activity against K562 cell line (in words) [1] | inhibition of ABL1 production (ABL1 tyrosine kinase)
COc1ccc(-c2cc(-c3ccccc3O)nc(N)n2)cc1 [1d, 2-(2-Amino-6-(4-methoxyphenyl)pyrimidin-4-yl)phenol] | completely lost their anti-tumor activity | –
COc1ccc(-c2cc(-c3ccc(OC)cc3)nc(N)n2)cc1 [1n, 4,6-Bis(4-methoxyphenyl)pyrimidin-2-amine] | completely lost their anti-tumor activity | –
COc1cccc(-c2cc(-c3ccc(Cl)cc3)nc(N)n2)c1 [1k, 4-(4-Chloro-phenyl)-6-(3-methoxy-phenyl)-pyrimidin-2-ylamine] | significantly decreased the inhibitory activity | –
Nc1nc(-c2ccc(Br)cc2)cc(-c2ccccc2O)n1 [1e, 2-(2-Amino-6-(4-bromophenyl)pyrimidin-4-yl)phenol] | – | 80%
Nc1nc(-c2ccc(Cl)cc2)cc(-c2ccccc2O)n1 [1f, 2-(2-Amino-6-(4-chlorophenyl)pyrimidin-4-yl)phenol] | significantly decreased the inhibitory activity | –
COc1ccc(-c2cc(-c3cccc(OC)c3)nc(N)n2)cc1 [1i, 4-(4-Methoxy-phenyl)-6-(3-methoxy-phenyl)-pyrimidin-2-ylamine] | completely lost their anti-tumor activity | –
COc1ccc(-c2cc(-c3ccc(Cl)cc3)nc(N)n2)cc1 [1p, 4-(4-Chlorophenyl)-6-(4-methoxyphenyl)pyrimidin-2-amine] | significantly decreased the inhibitory activity | –
